Data as given in ChEMBL document CHEMBL1158207, “Mauritiamine, a New Antifouling Oroidin Dimer from the Marine Sponge Agelas mauritiana” (1996).
The source made the active and inactive calls. No cut-off for these calls is given here.

Tests used:
[1] = tested on: Microbacterium maritypicum; test: Antimicrobial activity against Flavobacterium marinotypicum ATCC 19260 at 10 ug/disk after 24 hrs by paper disk method; assay type: functional; settings: ATCC 19260, 24 h, read-out: IZ
Ciona savignyi = test: Promotion of metamorphosis in ascidian Ciona savignyi larvae at 2.5 ug/ml after 10 hrs; assay type: functional, organism-based

| SMILES | zone of inhibition at 10 µg/disc [1] [mm] | Activity (Ciona savignyi) |
| --- | --- | --- |
| Nc1ncc(/C=C/CNC(=O)c2cc(Br)c(Br)[nH]2)[nH]1 [OROIDIN] | 15 | – |
| NC(=O)c1cc(Br)c(Br)[nH]1 | – | Active |
| NC1=NC(=O)C(/C=C/CNC(=O)c2cc(Br)c(Br)[nH]2)(c2nc(N)[nH]c2/C=C/CNC(=O)c2cc(Br)c(Br)[nH]2)N1 (stereo not drawn) [MAURITIAMINE] | 10 | – |
